The test system of assay [1] is Nilaparvata lugens (Brown Plant Hopper). As to the kind of experiment: Nilaparvata lugens (Brown Plant Hopper) rice seedling spray test, mortality. It is filed as in vivo. To be noted: read-out: Control/%.
The subject of assay [2] is Chilo suppressalis (Rice Stem Borer). Nature of the assay: Chilo suppressalis (Rice Stem Borer) treated rice leaf petri dish test, mortality. It is filed as in vivo. The note with it: read-out: Control/%. The method, then:
Nephotettix virescens (Green Leafhopper) Rice seedlings are treated with the diluted test solutions in a spray chamber. After drying, plants are infested with 10 N5 nymphs (3 replicates). 5 days after the treatment samples are checked for mortality. […] After drying, plants are infested with 20 N3 nymphs (2 replicates). 6-12 days after the treatment samples are checked for mortality. […] 10 larvae (L2) are added and the dish is covered with a filter tissue and a plastic lid. 5 days after treatment the percentage mortality is assessed (3 replicates per concentration).
The data in the comparative Examples below were obtained using the methods described above.

[3] abbreviates: Chilo suppressalis (Rice stem borer), application rate 0.2 ppm.
Where [4] appears, read: Chilo suppressalis (Rice stem borer), application rate 0.8 ppm.
[5] abbreviates: Nilaparvata lugens (Brown plant hopper), application rate 25 ppm.
Setting [6] is: Nilaparvata lugens (Brown plant hopper), application rate 50 ppm.

Where two headings read alike, the source gives them in different places.

In the case of `Cc1cc(C2=NOC(c3cc(Cl)cc(Cl)c3)(C(F)(F)F)C2)ccc1C(=O)NC1CSC1` (stereo not shown) [drawing 29], in assay [1] (Nilaparvata lugens), the pest or weed control at 25 ppm turned out to be 44% and the pest or weed control at 50 ppm worked out at 79%.
`O=C(NC1CSC1)c1ccc(C2=NO[C@@](c3cc(Cl)cc(Cl)c3)(C(F)(F)F)C2)cc1Cl` [drawing 27]: in assay [2] (Chilo suppressalis), the pest or weed control at 0.2 ppm is 93% and the pest or weed control at 0.8 ppm was 100%.
The like results for `Cc1cc(C2=NOC(c3cc(Cl)cc(Cl)c3)(C(F)(F)F)C2)ccc1C(=O)NC1(C)CSC1` (stereo not shown) [Reference compound, reference compound] were, in that order, 30% and 40%.
As for `Cc1cc(C2=NCC(c3cc(Cl)cc(Cl)c3)(C(F)(F)F)C2)ccc1C(=O)NC1(C)CSC1` (stereo not shown) [drawing 22], the pest or weed control at 0.2 ppm in assay [2] (setting [3]) is 30%. The pest or weed control at 0.8 ppm in assay [2] (setting [4]) amounted to 60%.
With `Cc1cc(C2=NOC(c3cc(Cl)cc(Cl)c3)(C(F)(F)F)C2)ccc1C(=O)NC1CSC1` (stereo not shown) [Compound of the invention], in assay [2] (Chilo suppressalis), the pest or weed control at 0.2 ppm worked out at 93% and the pest or weed control at 0.8 ppm was 100%.
Turning to `O=C(NC1CSC1)c1ccc(C2=NO[C@@](c3cc(Cl)cc(Cl)c3)(C(F)(F)F)C2)cc1Cl` [drawing 37], in assay [1] (Nilaparvata lugens), the pest or weed control at 25 ppm worked out at 15% and the pest or weed control at 50 ppm stood at 45%.
Take `Cc1cc(C2=NCC(c3cc(Cl)cc(Cl)c3)(C(F)(F)F)C2)ccc1C(=O)NC1(C)CS(=O)(=O)C1` (stereo not shown) [drawing 34]: the pest or weed control at 25 ppm in assay [1] (setting [5]) turned out to be 0%. The pest or weed control at 50 ppm in assay [1] (setting [6]) was 0%.
Regarding `Cc1cc(C2=NCC(c3cc(Cl)cc(Cl)c3)(C(F)(F)F)C2)ccc1C(=O)NC1CS(=O)(=O)C1` (stereo not shown) [drawing 23], the pest or weed control at 0.2 ppm in assay [2] (setting [3]) is 97%. Further, the pest or weed control at 0.8 ppm in assay [2] (setting [4]) is 100%.
As to `CC1(NC(=O)c2ccc(C3=NO[C@@](c4cc(Cl)cc(Cl)c4)(C(F)(F)F)C3)cc2Cl)CSC1` [drawing 38], in assay [1] (Nilaparvata lugens), the pest or weed control at 25 ppm was determined as 0% and the pest or weed control at 50 ppm is 30%.
In the case of `Cc1cc(C2=NOC(c3cc(Cl)cc(Cl)c3)(C(F)(F)F)C2)ccc1C(=O)NC1(C)CSC1` (stereo not shown) [drawing 30], in assay [1] (Nilaparvata lugens), the pest or weed control at 25 ppm was determined as 0% and the pest or weed control at 50 ppm is 0%.
In the case of `Cc1cc(C2=NCC(c3cc(Cl)cc(Cl)c3)(C(F)(F)F)C2)ccc1C(=O)NC1CSC1` (stereo not shown) [drawing 31], the pest or weed control at 25 ppm in assay [1] (setting [5]) came out at 100%. In addition, the pest or weed control at 50 ppm in assay [1] (setting [6]) is 100%.
Turning to `Cc1cc(C2=NCC(c3cc(Cl)cc(Cl)c3)(C(F)(F)F)C2)ccc1C(=O)NC1(C)CSC1` (stereo not shown) [drawing 32], the pest or weed control at 25 ppm in assay [1] (setting [5]) was 0%. For the same molecule, the pest or weed control at 50 ppm in assay [1] (setting [6]) was determined as 0%.
On to `Cc1cc(C2=NOC(c3cc(Cl)c(Br)c(Cl)c3)(C(F)(F)F)C2)ccc1C(=O)NC1CSC1` (stereo not shown) [drawing 25], for which, in assay [2] (Chilo suppressalis), the pest or weed control at 0.2 ppm worked out at 97% and the pest or weed control at 0.8 ppm amounted to 100%.
As to `Cc1cc(C2=NOC(c3cc(Cl)c(Br)c(Cl)c3)(C(F)(F)F)C2)ccc1C(=O)NC1(C)CSC1` (stereo not shown) [drawing 36], in assay [1] (Nilaparvata lugens), the pest or weed control at 25 ppm is 0% and the pest or weed control at 50 ppm came out at 0%.
For `Cc1cc(C2=NOC(c3cc(Cl)c(Br)c(Cl)c3)(C(F)(F)F)C2)ccc1C(=O)NC1(C)CSC1` (stereo not shown) [drawing 26], in assay [2] (Chilo suppressalis), the pest or weed control at 0.2 ppm stood at 40% and the pest or weed control at 0.8 ppm was determined as 80%.
Turning to `Cc1cc(C2=NCC(c3cc(Cl)cc(Cl)c3)(C(F)(F)F)C2)ccc1C(=O)NC1(C)CS(=O)(=O)C1` (stereo not shown) [drawing 24], in assay [2] (setting [3]), the pest or weed control at 0.2 ppm turned out to be 23%. Further, the pest or weed control at 0.8 ppm in assay [2] (setting [4]) was 60%.
Consider `CC1(NC(=O)c2ccc(C3=NO[C@@](c4cc(Cl)cc(Cl)c4)(C(F)(F)F)C3)cc2Cl)CSC1` [drawing 28], for which, in assay [2] (Chilo suppressalis), the pest or weed control at 0.2 ppm came out at 80% and the pest or weed control at 0.8 ppm turned out to be 97%.
As for `Cc1cc(C2=NCC(c3cc(Cl)cc(Cl)c3)(C(F)(F)F)C2)ccc1C(=O)NC1CSC1` (stereo not shown) [drawing 21], in assay [2] (setting [3]), the pest or weed control at 0.2 ppm stood at 40%. Also, the pest or weed control at 0.8 ppm in assay [2] (setting [4]) was found to be 90%.
`Cc1cc(C2=NCC(c3cc(Cl)cc(Cl)c3)(C(F)(F)F)C2)ccc1C(=O)NC1CS(=O)(=O)C1` (stereo not shown) [drawing 33]: in assay [1] (setting [5]), the pest or weed control at 25 ppm came to 93%. Moreover, the pest or weed control at 50 ppm in assay [1] (setting [6]) came out at 100%.
Consider `Cc1cc(C2=NOC(c3cc(Cl)c(Br)c(Cl)c3)(C(F)(F)F)C2)ccc1C(=O)NC1CSC1` (stereo not shown) [drawing 35], for which, in assay [1] (Nilaparvata lugens), the pest or weed control at 25 ppm was determined as 30% and the pest or weed control at 50 ppm was found to be 80%.
